Measurements: paper PMC8231556, “Inhibiting Endothelial Cell Function in Normal and Tumor Angiogenesis Using BMP Type I Receptor Macrocyclic Kinase Inhibitors” (Cancers, 2021)

Legend:
[1] = test system: HUVECs; assay: Cord formation assay, HUVEC-eGFP co-cultured with human dermal fibroblasts; format: cell-based; settings: for effect on VEGF-induced cord length, different concentrations: dose range; for effect on VEGF-induced EC cord formation: VEGF 15 ng/mL, 6 days, 0.5 µM (Sunitinib 1 μM)
Description: The cord formation assay was performed according to the IncuCyte Angiogenesis PrimeKit Assay protocol (Cell Player Angiogenesis PrimeKit, Essen BioScience). In brief, GFP labeled HUVEC cells and human dermal fibroblasts were mixed in a 1:20 ratio and seeded per well in a 96-well plate (3150 cells in total). Thereafter, the cells were exposed to VEGF alone or in combination with the compounds (at indicated concentrations) in a complete assay medium. Pictures were captured every 6 h for up to 9 days To monitor the cord formation. The medium was refreshed every 2 or 3 days. Cords formation was visualized by the GFP fluorescence, and cord length was quantified with the instrument’s software. All the experiments were repeated at least three times, and representative experiments are shown.

[2] = test system: EA.hy926 cells; assay: MTS assay; format: cell-based, human; settings: 0.5 μM, day 1, 2 and 3
Description: The MTS assay was used to measure the metabolic activity and viability of the cells. Around 5 × 10^3 EA.hy926 cells were seeded and cultured overnight in a 96-well plate and then cultured in the normal growth medium, which contained the indicated compounds and ligands. The MTS tetrazolium was measured according to the manufacturer’s protocol using an MTS Assay Kit (G3580, Promega). In brief, after exposing the cells in set conditions for 1, 2, and 3 days, 20 µL of MTS reagent was added to 100 μL cell growth medium per well and incubated for 4 h at 37 °C. Thereafter, absorbance at 490 nm was measured using a PerkinElmer […]. All the experiments were repeated at least three times, and representative experiments are shown.

[3] = test system: VEGF-induced pERK; assay: Western blot of VEGF-induced ERK MAP kinase phosphorylation in HUVECs; format: cell-based, human; settings: VEGF 40 ng/mL
Description: (§1) EA.hy926 cells or HUVECs were seeded in 6-well plates and starved in a serum-free medium for 4 h after reaching 80% confluence. The compounds were added 30 min prior to stimulation with the corresponding ligands. EA.hy926 cells were incubated with BMP9 (1 ng/mL), BMP6 (50 ng/mL), TGF-β2 (1 ng/mL), or vehicle control for 1 h. For HUVECs, after 4 h starvation, the cells were pre-treated with or without the indicated compounds for 30 min and subsequently stimulated with VEGF (40 ng/mL) for 10 min. The cells were harvested and lysed in radioimmunoprecipitation assay (RIPA) lysis buffer containing 1× complete protease inhibitor cocktail (11836153001, Roche, Basel, Switzerland). The protein concentration was determined using the DC protein assay kit (5000111, Bio-Rad). After adding loading buffer, the samples were boiled and proteins separated by sodium dodecyl sulfate polyacrylamide gel electrophoresis (SDS-PAGE). Proteins in the gel were transferred to polyvinylidene difluoride (PVDF) membranes (IPVH00010, Merck Millipore, Burlington, MA, USA) and immunoblotted with 1000 times diluted primary antibodies: phospho-SMAD1/5 (9516 S, Cell Signaling Technology, Leiden, The Netherlands), phospho-SMAD2 (pSMAD2, home-made), SMAD1 (6944 S, Cell Signaling Technology), SMAD2 (3103 S, Cell Signaling Technology), phospho-extracellular signal-regulated kinase/mitogen-activated protein kinase (pERK/MAPK, 4370, Cell Signaling Technology), mitogen-activated protein kinase/ERK1/2 (ERK1/2/MAPK, 9102 S, Cell Signaling Techonol), VEGFR (2479, Cell Signaling), pVEGFR (2478, Cell Signaling Technology), α/β-Tubulin (2148, Cell Signaling Technology), glyceraldehyde 3-phosphate dehydrogenase (GAPDH, MAB374, Merck Millipore). Clarity™ enhanced chemiluminescence (ECL) reagent (1705060, Bio-Rad) was used to visualize secondary antibodies conjugated to horseradish peroxidase (HRP). GAPDH or Tubulin was used as protein loading controls. […] The protein bands were quantified using ImageJ (National Institutes of Health, Bethesda, MD, USA).

[4] = test system: Tg (fli:EGFP) zebrafish embryos; assay: Zebrafish subintestinal vessel (SIV) formation; format: in vivo; settings: 0.5 µM, 3 days
Description: The Tg (fli:EGFP) zebrafish embryos were collected, and embryos with the same development stage (around 2.5 hpf) were selected. Groups containing at least 25 embryos were treated with the indicated compounds at 0.5 µM for 3 days. The egg water was refreshed every day, and the abnormal embryos were removed. After 3 days of treatment, the zebrafish embryos were fixed in 4% PFA for 2 h at room temperature and stored at 4 °C in PBS. The area containing SIV in each zebrafish embryo was scanned with an Andor Dragonfly 500 spinning disk confocal by using a 488 nm laser. At least ten zebrafish embryos in each group were randomly selected and analyzed. The SIV vasculature of the zebrafish was quantified with ImageJ. The leading buds were counted as previously described. The experiments were repeated twice with similar results.

[5] = test system: MDA-MB-231 breast cancer cell-induced angiogenesis; assay: Tumor angiogenesis in zebrafish (MDA-MB-231 xenograft); format: in vivo; settings: 0.5 µM, 3 days, MDA-MB-231 in perivitelline space
Description: Two days post fertilization (dpf), four hundred mCherry-labeled human breast cancer MDA-MB-231 cells were injected into the perivitelline space of Tg (fli:EGFP) zebrafish embryos as previously described. The properly injected zebrafishes were randomly divided into five groups, and each group contained at least 30 embryos. […] The egg water was refreshed daily, and the abnormal embryos were removed. After 3 days, the embryos were fixed in 4% PFA for 2 h at room temperature and stored at 4 °C in PBS. The tumor cell-induced angiogenesis in the perivitelline space was imaged with an Andor Dragonfly 500 spinning disk confocal using 488 nm and 561 nm lasers. At least ten embryos per group were randomly selected and scanned. The experiments were repeated twice with similar results. Tumor angiogenesis was quantified using ImageJ, and the relative vasculature density was calculated according to the following formula: Relative vasculature density (%) = 100% × (Vessel intensity within the perivitelline space)/(tumor cells intensity within the perivitelline space).

[6] = target: ACVR2A (Homo sapiens, UniProt P27037); assay: radiometric protein kinase assay, affinity (Kd); format: binding
Description: The binding interaction profile of the compounds for ALK1–6, ACVR2A, ACVR2B, and TGFβR2 was determined by using radiometric protein kinase assay. For each compound, ten different concentrations (from 3 × 10^−6 M to 9 × 10^−11 M) were used in the protein kinase reaction. The inhibitor binding constants (Kd values) were calculated based on the 10 corresponding residual activities for each compound using Prism 5.04 (Graphpad, San Diego, CA, USA) according to the following formula:Kd = ([K][I]/[C]) where [K] = molar concentration of non-inhibitor bound kinase at equilibrium, [I] = molar concentration of the free inhibitor at equilibrium, [C] = molar concentration of kinase-inhibitor complex at equilibrium.

[7] = test system: TGF-β2-induced SMAD2 phosphorylation; assay: Western blot of TGF-β2-induced SMAD2 phosphorylation in EA.hy926 cells; format: cell-based, human; settings: TGF-β2 1 ng/mL
Description: as §1

Sequence of ACVR2A (P27037 20-513): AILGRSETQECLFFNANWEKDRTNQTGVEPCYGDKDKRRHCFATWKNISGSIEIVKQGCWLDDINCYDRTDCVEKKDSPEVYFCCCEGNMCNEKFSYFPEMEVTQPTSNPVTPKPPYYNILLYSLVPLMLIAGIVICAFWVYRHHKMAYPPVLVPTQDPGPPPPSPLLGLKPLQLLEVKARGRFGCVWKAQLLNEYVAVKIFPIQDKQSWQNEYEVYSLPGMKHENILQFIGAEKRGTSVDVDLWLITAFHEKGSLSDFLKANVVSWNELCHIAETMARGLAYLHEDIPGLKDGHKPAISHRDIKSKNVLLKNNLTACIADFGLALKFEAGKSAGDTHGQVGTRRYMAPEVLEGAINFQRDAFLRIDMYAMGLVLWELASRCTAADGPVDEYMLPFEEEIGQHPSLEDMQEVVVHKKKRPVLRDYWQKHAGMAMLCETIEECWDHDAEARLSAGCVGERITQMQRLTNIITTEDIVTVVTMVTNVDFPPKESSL

Structure (SMILES) | effect on VEGF-induced cord length, different concentrations ([1]; VEGF 20 ng/mL, 9 days) | effect on EA.hy926 cell viability (MTS) [2] | effect on VEGF-induced pERK [3] | effect on SIV vessel length [4] | effect on cancer cell-induced angiogenesis (relative vasculature density) [5] | effect on VEGF-induced EC cord formation [1] | Kd [6] [nM] | effect on number of SIV tip cells (leading buds) [4] | effect on TGF-β2-induced SMAD2 phosphorylation ([7]; 0.1 µM compound) | effect on VEGF-induced cord formation at 0.5 μM ([1]; VEGF 20 ng/mL, 9 days, 0.5 μM) | effect on TGF-β2-induced SMAD2 phosphorylation ([7]; dose range) | effect on VEGF-induced cord formation at 0.1 μM ([1]; VEGF 20 ng/mL, 9 days, 0.1 μM)
CNC(=O)c1ccccc1Sc1ccc2c(/C=C/c3ccccn3)n[nH]c2c1 [Axitinib, reference compound] | potently inhibited | no significant effects | blocked | markedly inhibited | markedly inhibited | – | – | – | – | – | – | –
c1ccc2c(-c3cnn4cc(-c5ccc(N6CCNCC6)cc5)cnc34)ccnc2c1 [LDN-193189, reference compound] | – | markedly attenuated | – | resulted in a lack of SIV vessels | – | no inhibitory effect and even slightly enhanced | 11 | significantly increased | effectively attenuated | – | – | –
CN1CCc2cccc(c2)Nc2nccc(n2)N2CCCc3cc(ccc32)C1 [OD16] | antagonized in a dose-dependent manner | no significant effects | failed to alter | significantly inhibited | significantly inhibited | antagonized | 110 | did not influence | – | apparent inhibitory effects | in a dose-dependent manner but far less efficiently than LDN-193189 | –
CN1CCC(=O)NCCNc2ccn3ncc(c3n2)-c2cccc(c2)C1 [OD29] | antagonized in a dose-dependent manner | no significant effects | profoundly decreased | significantly inhibited | significantly inhibited | antagonized | 1240 | did not influence | – | – | nearly no inhibitory effect | effectively attenuated
